Source: paper PMC11239005, “Preclinical studies of RA475, a guanidine-substituted spirocyclic candidate RPN13/ADRM1 inhibitor for treatment of ovarian cancer” (PLOS ONE, 2024)

How the values were obtained:
[1] = biological target: T1, RPN13 (Homo sapiens, UniProt Q16186); experiment: Up284B competition labelling in ES2 and SKOV3 cell lysate; assay type: binding; settings: titrated RA475, bortezomib 1 μM, Up284B 5 μM
T1 construct: performed the labeling assay after treating ovarian cancer cell lysates (ES2 and SKOV3) in the presence of titrated doses of RA475; endogenous in cells; host or cells: ES2 and SKOV3 ovarian cancer cell lysates
Protocol: Clarified cell lysate in MPER buffer (Pierce) was pretreated with streptavidin-coated magnetic beads for 45 min at 4°C to deplete non-specific biotinylated proteins in the cell lysate. […] Next, the samples were mixed with Laemmli sample buffer (BioRad) and boiled for 5 min. The proteins were separated using a 4–15% Bio-Rad Mini-PROTEAN SDS-PAGE gel (1 h at 100 V), and transferred to PVDF membrane overnight at 4°C (24 V). The membrane was blocked with 5% (w/v) BSA in phosphate buffered saline containing 0.1% (v/v) Tween 20 (PBST) for 1 h at RT, and washed for 20 min (3X with PBST). Then the membrane was probed with HRP-streptavidin (1:10,000 in PBST) for 1 h at RT, washed for 30 min (3X with PBST), and developed using HyGLO chemiluminescent detection reagent (Denville) and visualized using a Biorad Chemidoc imager.
Fig 2 RA475 binds to RPN13 and induces rapid apoptosis. […] C, D) RA475 competition labelling experiment. C) ES2 D) SKOV3 clarified cell lysate (40 μg/sample) in MPER buffer was pretreated with streptavidin-coated magnetic beads for 45 min at 4°C to deplete non-specific biotinylated proteins in the cell lysate. […] Next, the samples were mixed with Laemmli sample buffer (BioRad) and boiled for 5 min. The proteins were separated using a 4–15% Bio-Rad Mini-PROTEAN SDS-PAGE gel (1 h at 100 V), and transferred to PVDF membrane overnight at 4°C (24 V). […]

[2] = cited from earlier work
[3] = system: high molecular weight polyubiquitinated proteins in OVCAR3 cells; experiment: Anti-ubiquitin immunoblot, OVCAR3; assay type: cell-based, human; settings: Up284 0.5 μM, bortezomib 0.25 μM, ixazomib 0.25 μM, RA475 0.5 or 1 μM
From the text: Cell lysate prepared in MPER (Pierce) from each sample was normalized by total protein concentration using the bicinchoninic acid assay and bovine serum albumin standards. Normalized samples were subjected to SDS-PAGE, transferred to PVDF membranes and analyzed by Western blot using antibodies specific to ubiquitin (P4D1, sc-8017, Santa Cruz), PARP (#9542, […]), actin (#66009, Protein Tech Group), Tubulin(#66031, Protein Tech Group), ADRM1/RPN13 (D9Z1U, #12019, Cell Signaling), USP14 (Cell Signal, # 8159), Annexin V (#559763, BD Pharmingen), and for secondary antibodies we utilized either horseradish peroxidase (HRP)-linked anti-mouse IgG or anti-rabbit IgG (GE Healthcare UK Ltd), HRP-linked streptavidin (N100, Thermo Fisher) at the recommended dilution (1:5000).
Accumulation of high molecular weight polyubiquitinated proteins (polyUb) is a classical phenomenon of proteasome function inhibition due to the stabilization of its substrate.
Fig 3 Impact of RA475 on proteasome function. […] Actin was used as loading control. […] C) 4T1 and HCC1806 cells stably expressing 4UbFL were treated with compounds at indicated doses for 4 h and imaged by IVIS200 after the addition of luciferin substrate (50 μL, 7mg/mL in PBS). D) Sub-confluent cultures of ES2 cells stably expressing 4UbFL were seeded at 10,000 cells/well in 96-well microtiter plates. At 18 h post transfection, cells were treated with compounds or vehicle (DMSO) at the doses indicated. After a 4 h incubation, the cells were lysed and the luciferase activity in each cell lysate was determined with a luciferase assay kit (Promega) according to the manufacturer’s instructions. Bioluminescence was measured by using a luminometer (Glomax Multidetection system, Promega) E) A patch was shaved of hair on one leg of CD-1 mice, and 10 μg 4UbFL plasmid in 20 μL of PBS was injected into the quadriceps femoralis muscle followed immediately by injection of the 2 Needle Array to 5 mm depth encompassing the injection site and square wave electroporation (ElectroSquarePorator 833, BTX-2 Needle array 5mm gap, Harvard apparatus) delivered as eight pulses at 106V for 20 ms with 200 ms intervals. One day post electroporation, mice were anesthetized with isoflurane, injected IP with luciferin (0.3 mg in 100 μL water) and optical imaging was performed to determine basal level luciferase expression. Images were acquired for 10 min with a Xenogen IVIS 200 (Caliper, Hopkinton, MA). Equally sized areas were analyzed using Living Image 2.20 software. Mice were imaged weekly during treatment. […]

T1 sequence (Q16186 whole entry): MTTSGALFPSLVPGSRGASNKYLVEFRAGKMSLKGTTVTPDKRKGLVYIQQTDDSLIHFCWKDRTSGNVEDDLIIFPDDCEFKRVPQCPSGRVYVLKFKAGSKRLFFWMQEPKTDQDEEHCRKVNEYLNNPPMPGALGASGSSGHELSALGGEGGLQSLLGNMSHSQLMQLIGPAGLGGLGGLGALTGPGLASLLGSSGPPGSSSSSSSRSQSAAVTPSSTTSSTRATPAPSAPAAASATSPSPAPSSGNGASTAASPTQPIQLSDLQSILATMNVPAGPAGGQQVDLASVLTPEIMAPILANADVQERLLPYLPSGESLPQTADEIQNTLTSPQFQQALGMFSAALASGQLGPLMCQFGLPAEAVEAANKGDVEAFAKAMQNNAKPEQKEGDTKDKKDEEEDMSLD

For `CC(C)C[C@H](NC(=O)[C@H](Cc1ccccc1)NC(=O)c1cnccn1)B(O)O` [bortezomib], the “competition with Up284B for binding to RPN13” value [1] is given as “no impact”, the “concentration in human cerebrospinal fluid and murine brain tissue, % of serum concentrations” value [2] is given as 5–7% and the “forms of polyUb induced” value [3] is given as “only induced the smaller poly Ub forms, typically <250kDa”.
